Assay results from patent US9567371B2, “Short beta-defensin-derived peptides” (Yeda Research and Development Co. Ltd., priority 2009, dated 2017).
Peptide text beside a SMILES is read from it.

Key:
C57BL/6 mice = assay: Mobilization assay: WBC number in peripheral blood; type: in vivo, mouse
Procedure: FIG. 2. Dose-response effect of TL-1 and AK-1 on mobilization of WBC. C57BL/6 mice were s.c. injected with 1, 5 or 10 mg/kg of TL-1 or AK-1. Control mice were injected with phosphate buffered saline (PBS). After 1-1.5 h, mice were sacrificed and WBC number in the PB was calculated. Data shown are the mean±SD of 3 separate experiments. *P<0.05 compared to control.
FIG. 4. TL-1 synergizes with G-CSF to mobilize WBC. C57BL/6 mice were s.c. injected with G-CSF 2.5 μg/twice a day for four days. Eighteen hrs after the last injection mice were s.c. injected with 5 mg/kg of either TL-1, AK-1 or AMD3100 (AMD), sacrificed 1.5 h later, and the number of WBC was calculated. Control mice were injected with PBS or with TL-1, AK-1 or AMD3100 without pre-treatment with G-CSF. […]
C57BL/6 mice were injected s.c. with PBS (control), 5 mg/kg AMD3100, or one of the peptides TL-1, cyclic TL-1 and AK-1, at various doses. […] Peripheral blood (PB) was collected from mice by cardiac puncture into heparin containing tubes and the number of white blood cells (WBC) per 1 mL of blood was calculated. […] Colonies, reflecting colony-forming units (CFU), were scored after 7 days.
The cell mobilizing potential of the peptides was examined in intact C57BL/6 mice, using the protocol applied for AMD3100 (Broxmeyer, H. E., et al., 2005). First, the effect of different doses of the peptides was evaluated. […]

G2 cells [1] = assay: Transwell migration towards SDF-1; type: cell-based, human
Procedure: (§1) FIGS. 8A-8D. Effect of TL-1 and cyclic TL-1 on in vitro and in vivo cell migration. (A, C) Human CD3^+, G2, cord blood CD34^+ and peripheral blood mononuclear (PBMC) cells were preincubated with 1 and 10 μM TL-1 for 3 hrs in serum free medium, washed and allowed to migrate towards SDF-1. Migrated cells were collected and calculated by flow cytometry. Percentage of migrated cells is presented as compared to untreated (UT) control taken as 100%. (B) G2 cells were similarly preincubated with 10 μM TL-1 or cTL-1 for the indicated periods of time and percentage of migrated cells is depicted. (D) Homing assay. G2 cells were similarly preincubated with 10 μM TL-1 or cTL-1 for 3 hrs, washed and i.v. injected (10×10^6/mouse) to non-irradiated NOD/SCID mice. Percentage of G2 cells in the murine BM and spleens was determined by staining with anti-human CD45 Ab and compared with untreated (UT) cells. […]
FIGS. 9A-9B. […] Migrated cells were collected and calculated by flow cytometry. […]
Various cells (1×10^6/mL), untreated or pretreated with peptides for 3 hrs at 96-well flat bottom plates at 37° C. were washed, 2×10^5 cells/100 μL were added to the upper chambers of Costar 24-well transwell plates with 5 μm pore filters (Corning Inc., Corning, N.Y.) and allowed to migrate for 2-4 hrs at 37° C. […] Migrated cells were collected from the lower chambers and counted using a flow cytometer. […]

G2 cells [2] = assay: Homing assay of pretreated G2 cells in NOD/SCID mice; type: in vivo, mouse; conditions: 10 μM pretreatment 3 hrs, i.v. into non-irradiated NOD/SCID mice, 16 hrs
Procedure: as §1
G2 cells (10×10^6/mL) pretreated with the peptides for 3 hrs as described above, were injected i.v. into non-irradiated NOD/SCID mice, which were sacrificed 16 hrs later. Samples of BM cells flushed from both femur and tibia bones and spleen cell suspension were prepared, and the percentage of human cells was determined by staining with anti-human CD45-FITC mAb (ImmunoQuality Products, Groningen, The Netherlands) as described (Spiegel, A., et al., 2004).

In the case of `N=C(N)NCCC[C@@H]1NC(=O)CNC(=O)[C@H](CCCNC(=N)N)NC(=O)[C@H](CCCCN)NC(=O)[C@H](CCCCN)NC(=O)[C@H](CCCNC(=N)N)NC(=O)[C@H](CCCNC(=N)N)NC(=O)[C@H](CS)NC(=O)[C@H](CS)NC(=O)[C@H](CCCCN)NC1=O` [cyclic TL-1, 1,10-cyclo[RGRKCCRRKK]] (cyclo(CCRRKKRGRK)), the “WBC mobilization upon simultaneous injection with AMD3100” value (C57BL/6 mice; 5 mg/kg s.c. each) is reported as “decreased its mobilizing capacity”, the “WBC mobilization, dose response” value (C57BL/6 mice; all tested doses: 1, 5 and 10 mg/kg s.c.) is reported as “did not induce WBC mobilization” and the SDF-1-induced migration (G2 cells [1]; 1 μM) is reported as “ineffective”. For the same compound, the “inhibition of SDF-1-induced migration” value (G2 cells [1]; 10 μM) was 2 fold, the “homing of pretreated G2 cells to the BM” value (G2 cells [2]) was “decrease the homing” and the “homing of pretreated G2 cells to the spleen” value (G2 cells [2]) was “decreased G2 cell homing”.
